# Results published in US11104735B2, “Inhibition of cytokine-induced SH2 protein in NK cells” (The Walter and Eliza Hall Institute of Medical Research, priority 2015, dated 2021).
# Residues, ends and D or L forms follow the SMILES beside them. *: point of attachment. Cbz = O=C(OCc1ccccc1)*
# Legend:
# [1] = biological target: T1, JAK3 phosphopeptide (JAK3-Y980,Y981) (Homo sapiens, UniProt P52333); assay: ITC, CIS constructs binding to JAK3 phosphopeptide; settings: CIS constructs with elongins B and C
# T1 construct: purchased Genscript
# Method: 300 μM phosphopeptides were titrated into a 30 μM solution of the GST-CIS-SH2-BC ternary complex. ITC titration curves are shown. The titration curves all fitted well to a single-site model.
# Isothermal calorimetric titrations were performed with a Microcal ITC200 (GE Healthcare). Phosphopeptides were obtained from Genscript. An optimised GST-CIS protein construct was prepared in which the internal PEST region ([…]) was deleted. The resulting ternary GST-CIS-SH2-SB complexes were dialysed against buffer (20 mM Tris pH 8.0, 100 mM NaCl, 2 mM 2-mercaptoethanol). Experiments were performed at 298 K unless stated otherwise. Typically, 12×3.15 μl injections of 300 μM phosphopeptides were titrated into a 30 μM solution of the GST-CIS-SH2-SB ternary complex. The heat of dilution of GST-CIS-SH2-BC was subtracted from the raw data of the binding experiment. Data were analysed using the evaluation software, Microcal Origin version 5.0. The binding curve fitted a single-site binding mode and all KD values were determined from duplicate experiments.
# primary human NK cells = assay: Immunoblot of IL-15 treated primary human NK cells; assay type: cell-based; settings: 2 h with IL-15, 10 μM
# Method: Patient-derived human NK cells (a) or NK lymphoma cell lines (b) SNK-10, (c) NKL and NK6, (d) NK-92 were washed free of cytokine and rested for 4 h (a) or 16 h (b-d) prior to treatment with IL-15 for the indicated times. In some instances, cells were incubated with the proteasomal inhibitor MG132 (10 μM). Cells were lysed and analysed by immunoblotting with antibodies to the indicated phosphorylated (p) and total proteins.
# wild-type NK cells = assay: JAK1 phosphorylation in IL-15 stimulated wild-type NK cells; assay type: cell-based, mouse; settings: IL-15 50 ng/ml
# Method: (a) Cultured NK cells from wild-type and Cish^−/− mice were lysed, mRNA purified and analysed by RNAseq. Mean RPKM values for duplicate samples (left panel). JAK1 mRNA levels were analysed by Q-PCR (right panel). Mean±S.D., n=3. (b) 4-12% Coomassie-stained SDS-PAGE gel showing purified hCIS-SH2-BC complex, elongin B and elongin C. (c) Isothermal calorimetry (ITC) was used to measure the affinity of hCIS-SH2-BC binding to phosphopeptides corresponding to tyrosines within the JAK1/3 kinase domain activation loops and IL-2Rβ and γ cytoplasmic domains. […] were titrated into a 30 μM solution of the GST-CIS-SH2-BC ternary complex. ITC titration curves and tabular view of some results (inset) showing mean±S.D. from two independent experiments. N.D.=Not detectable, p=phosphorylated. The titration curves all fitted well to a single-site model. (d) Cultured wild-type NK cells were washed and starved of IL-15 for 4 h, with and without addition of the proteasomal inhibitor, MG132. Cells were then stimulated with 50 ng ml^−1 IL-15 for the indicated times, prior to cell lysis and Western blotting with antibodies to the indicated proteins. […]
# Lysates were clarified by centrifugation at 16,060×g for 15 min at 4° C. Protein concentrations were determined by the BCA method (Pierce, Rockford). […]
# [2] = tested on: JAK1 phosphorylation in 293T cells; assay: JAK1 phosphorylation in 293T cells co-expressing JAK1 and CIS; assay type: cell-based, human; settings: pre-incubation of 293T cells, 10 μM for 4 h
# Method: (a) Isothermal calorimetry (ITC) was used to measure the affinity of hCIS-SH2-BC binding to phosphopeptides corresponding to tyrosines within the JAK1/3 kinase domain activation loops and IL-2Rβ cytoplasmic domains. Tabular view of the results, showing mean±S.D. from two independent experiments. N.D.=Not detectable, p=phosphorylated. […] In some instances, cells were treated with the proteasome inhibitor, MG132. […] Protein expression levels are shown by anti-FLAG blots of whole cell lysates (lower panels). […] Protein levels are shown in the lower panels by anti-FLAG blot of cell lysates. (e) Using a cell-free system, FLAG-JAK1 was incubated with (+) and without (−) the CIS-E3 ligase complex (CIS-SH2-BC with Cullin5 and Rbx2), together with ubiquitin, E1 and E2 enzymes at 37° C. for the times indicated. JAK1 ubiquitination was visualised by Western blotting with antibodies to […]. […] Data were normalised to no-CIS controls. […] See also FIG. 9.
# Lysates were clarified by centrifugation at 16,060×g for 15 min at 4° C. Protein concentrations were determined by the BCA method (Pierce, Rockford). […] In some instances, cells were pre-treated with 10 μM MG132 for 4 h to block proteasomal degradation. 48 h post-transfection cells were lysed in KALB buffer (Nicholson et al., 1995). FLAG proteins were immunoprecipitated using M2-beads (Sigma) and proteins eluted in SDS sample buffer. […]
# CIS = biological target: T2, CIS (Homo sapiens, UniProt Q9NSE2, DEL174-202); assay: Kinase inhibition assay with competitor of CIS-SH2 binding; assay type: biochemical; settings: for Effect on CIS-mediated inhibition of JAK1 JH1: CIS-SH2-BC, excess JAK1-Y1034 phosphopeptide as competitor
# T2 construct: fragment: residues 66-258 with a deletion of; GST (N); made in house; host or cells: E. coli BL21(DE3)
# Method: (a) Cultured NK cells from wild-type and Cish^−/− mice were lysed, mRNA purified and analysed by RNAseq. Mean RPKM values for duplicate samples (left panel). JAK1 mRNA levels were analysed by Q-PCR (right panel). Mean±S.D., n=3. (b) 4-12% Coomassie-stained SDS-PAGE gel showing purified hCIS-SH2-BC complex, elongin B and elongin C. (c) Isothermal calorimetry (ITC) was used to measure the affinity of hCIS-SH2-BC binding to phosphopeptides corresponding to tyrosines within the JAK1/3 kinase domain activation loops and IL-2Rβ and γ cytoplasmic domains. […] were titrated into a 30 μM solution of the GST-CIS-SH2-BC ternary complex. ITC titration curves and tabular view of some results (inset) showing mean±S.D. from two independent experiments. N.D.=Not detectable, p=phosphorylated. The titration curves all fitted well to a single-site model. (d) Cultured wild-type NK cells were washed and starved of IL-15 for 4 h, with and without addition of the proteasomal inhibitor, MG132. Cells were then stimulated with 50 ng ml^−1 IL-15 for the indicated times, prior to cell lysis and Western blotting with antibodies to the indicated proteins. (e) Kinase inhibition assays were performed with the kinase domain (JH1) of JAK1 in the presence of CIS-SH2-BC with and without excess JAK1-Y1034 phosphopeptide as a competitor. […] Data were normalised to no-CIS controls.
# (c) Alternatively, 50 μM JAK1-Y1034 or JAK3-Y980,Y981 phosphopeptides were used as competitor. Data were normalised to no-CIS controls. All CIS constructs contained the SOCS box and were expressed and purified as a trimeric complex consisting of CIS, elongin B and elongin C.
# Kinase inhibition assays were performed essentially as described (Babon et al., 2012). Briefly, 130 μM STAT5b peptide (SEQ ID NO:18 […]) was incubated with 5 nM JAK1 at 25° C. for 30-60 min in 20 mM Tris pH 8.0, 100 mM NaCl, 5 mM 2-mercaptoethanol, 0.2 mg ml^−1 bovine serum albumin, 2 mM MgCl2, 100 μM ATP and 1 mCi γ-[32P]ATP. Recombinant CIS-SH2-BC was present at concentrations ranging from 0-30 μM. After incubation, the reaction was spotted onto P81 phosphocellulose paper and quenched in 5% H3PO4. The paper was washed (4×200 ml, 15 min) with 5% H3PO4 and exposed to a phosphorimager plate (Fuji). Quantitation was performed using Fuji software and IC50 curves calculated using Graphpad Prism.
# [3] = tested on: advanced malignant melanoma; settings: patients; cited from earlier work
# LWT1 melanoma cells = assay: LWT1 experimental lung metastasis; assay type: in vivo, mouse; settings: Cish−/− mice, 7.5×10^5 cells i.v., day 14
# Method: Mice were monitored for tumor development and were euthanized at the point of abdominal swelling and discomfort. Improved survival between groups was assessed by the Log-rank Mantel-Cox test. (D) Groups of 5-15 B6.WT (Cish^+/+) or B6.Cish^-/- mice were injected i.v. with 5×10^5 RM-1 prostate carcinoma cells and treated with either cIg, anti-CD96, anti-PD-1, anti-CTLA-4 or anti-PD1/anti-CTLA-4 combination (250 μg i.p. each on days 0 and 3). (E) Groups of 8-10 B6.WT (Cish^+1 or B6.Cish^-/- mice were injected i.v. with 7.5×10^5 B16F10 melanoma cells and treated with either 250 μg cIg or anti-CD96 mAb (i.p. on days 0 and 3). (F) Groups of 5-6 B6.WT (Cish^+1 or B6.Cish^-/- mice were injected i.v. with 7.5×10^5 LWT1 melanoma cells and treated with either vehicle or PLX4720 (10 mg/kg i.p., daily from day 0 to 6). Lungs were harvested on (A, D, F) day 14 or (B, E) day 13 and macrometastases counted. Individual mice are shown by each symbol and the results are plotted as mean±SEM. Statistically significant differences as indicated were determined by one-way ANOVA with Tukey post-test (for multiple comparisons) (*: […]; **: p<0.01; ***: p<0.001; ****: p<0.0001). […] Lungs were harvested on day 14 and macrometastases counted. […] Lungs were harvested on day 14 and either fixed in Bouin's solution and B16F10 metastases counted^44 or analysed for NK cell expansion by flow cytometry. […]
compound,measurement,setting,value
full-length CIS: human full-length CIS protein expressed with elongins B and C as trimeric complex,Binding affinity (ITC) to JAK3 phosphopeptide,[1],comparable affinity
CC(C)C[C@@H](C=O)NC(=O)[C@H](CC(C)C)NC(=O)[C@H](CC(C)C)NC(=O)OCc1ccccc1 [MG132] (Cbz-Leu-Leu-Leu-aldehyde),JAK1 phosphorylation,primary human NK cells,remained reduced
same,Total JAK1 and CIS levels,primary human NK cells,increase total JAK1 and CIS levels
same,Phosphorylation of endogenous JAK1,wild-type NK cells,increase in phosphorylation of endogenous JAK1
same,Effect on CIS-mediated regulation of JAK1 phosphorylation,[2],reduced CIS-mediated regulation of JAK1 phosphorylation
"O=P(O)(O)Oc1ccccc1 [phenyl phosphate, reference compound]",Effect on CIS inhibition of JAK1 kinase activity,"CIS; excess phenyl phosphate as competitor, all CIS constructs",abrogated the ability of all CIS constructs to inhibit JAK1 kinase activity
Ipilimumab: antibody-based therapy that targets CTLA-4,Tumour responses,[3],10-12%
JAK1-Y1034: phosphopeptide corresponding to a singly-phosphorylated JAK1 activation loop (Tyr1034),Effect on CIS inhibition of JAK1 kinase activity,CIS; 50 μM free phosphopeptide as competitor,dramatically reduced the ability of CIS to inhibit JAK1 kinase activity
same,Effect on CIS-mediated inhibition of JAK1 JH1,CIS; listed as JAK1 activation loop peptide,only partial reduction of inhibition
same,Effect on CIS-mediated inhibition of JAK1 JH1,CIS; listed as pY1034 peptide,partially reduced CIS-mediated inhibition
CCCS(=O)(=O)Nc1ccc(F)c(C(=O)c2c[nH]c3ncc(Cl)cc23)c1F [PLX4720],LWT1 lung metastasis,LWT1 melanoma cells,further reduced
